# Test results reported in ChEMBL document CHEMBL5233269, “Anticancer potential of spirocompounds in medicinal chemistry: A pentennial expedition” (Eur J Med Chem, 2021).
# Experiments:
# NCI-H460 = assay: Growth inhibition of human NCI-H460 cells; format: functional, cell-based
# FaDu = assay: Anticancer activity against human FaDu cells; format: functional, cell-based
# Androgen receptor [1] = molecular target: T1, Androgen receptor (Homo sapiens, UniProt P10275); assay: Antagonist activity at androgen receptor (unknown origin) assessed as inhibition constant
# T1 sequence (P10275 whole entry): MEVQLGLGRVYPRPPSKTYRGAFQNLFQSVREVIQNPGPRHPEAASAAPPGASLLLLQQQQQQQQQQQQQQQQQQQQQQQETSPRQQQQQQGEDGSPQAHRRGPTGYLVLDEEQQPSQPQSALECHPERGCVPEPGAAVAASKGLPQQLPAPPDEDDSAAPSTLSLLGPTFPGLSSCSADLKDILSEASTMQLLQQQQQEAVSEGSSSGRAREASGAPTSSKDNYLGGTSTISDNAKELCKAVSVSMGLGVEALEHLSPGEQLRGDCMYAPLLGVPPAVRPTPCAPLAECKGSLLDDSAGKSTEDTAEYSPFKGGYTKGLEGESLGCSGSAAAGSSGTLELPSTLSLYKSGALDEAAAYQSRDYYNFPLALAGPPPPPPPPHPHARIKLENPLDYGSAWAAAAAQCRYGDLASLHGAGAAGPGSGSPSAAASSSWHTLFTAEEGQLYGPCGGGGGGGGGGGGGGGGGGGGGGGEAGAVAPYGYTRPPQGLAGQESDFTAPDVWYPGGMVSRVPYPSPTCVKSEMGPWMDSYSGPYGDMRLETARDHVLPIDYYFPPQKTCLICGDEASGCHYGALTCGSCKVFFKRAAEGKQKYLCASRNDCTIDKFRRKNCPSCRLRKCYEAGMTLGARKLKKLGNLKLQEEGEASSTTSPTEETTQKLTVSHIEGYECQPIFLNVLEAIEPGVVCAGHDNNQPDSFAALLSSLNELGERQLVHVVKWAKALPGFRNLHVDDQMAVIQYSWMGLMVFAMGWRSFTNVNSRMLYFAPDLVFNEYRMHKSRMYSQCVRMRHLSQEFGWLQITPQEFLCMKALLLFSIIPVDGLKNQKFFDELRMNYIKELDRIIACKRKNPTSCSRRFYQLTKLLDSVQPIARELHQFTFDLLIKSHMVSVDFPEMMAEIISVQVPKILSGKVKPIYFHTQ
# Androgen receptor [2] = molecular target: T1, Androgen receptor; assay: Antagonist activity at androgen receptor (unknown origin)
# HepG2 = assay: Anticancer activity against human HepG2 cells at 50 ug/ml measured after 48 hrs relative to control; format: functional; settings: dose 50 µg/ml
# MCF7 [3] = assay: Cytotoxicity against human MCF7 cells assessed as reduction in cell viability; format: functional, cell-based
# HeLa [4] = assay: Cytotoxicity against human HeLa cells assessed as reduction in cell viability; format: functional, cell-based
# [5] = Cytotoxicity against human H357 cells; format: functional, cell-based
# HCT-116 [6] = assay: Cytotoxicity against human HCT-116 cells assessed a reduction in cell viability; format: functional, cell-based
# MDA-MB-231 [7] = assay: Cytotoxicity against human MDA-MB-231 cells; format: functional, cell-based
# MCF7 [8] = assay: Cytotoxicity against human MCF7 cells; format: functional, cell-based
# HeLa [9] = assay: Anticancer activity against human HeLa cells assessed as inhibition of cell viability; format: functional, cell-based
# [10] = Anticancer activity against […] 3T3 cells; format: functional, cell-based; settings: NIH3T3
# MCF7 [11] = assay: Cytotoxicity against human MCF7 cells incubated for 72 hrs by MTT assay; format: functional, cell-based; settings: MCF7, 72 h
# A549 [12] = assay: Cytotoxicity against human A549 cells incubated for 72 hrs by MTT assay; format: functional, cell-based; settings: A549, 72 h
# [13] = Cytotoxicity against human VA13 cells incubated for 72 hrs by MTT assay; format: toxicity, cell-based; settings: VA13 (WI-38 VA13) cells
# [14] = Cytotoxicity against HEK293T cells incubated for 72 hrs by MTT assay; format: toxicity, cell-based, HEK-293T; settings: human
# HL-60 [15] = assay: Induction of mitochondrial membrane potential loss in human HL-60 cells measured after 72 hrs by […] based flow cytometric analysis; format: functional, cell-based; settings: HL-60, 72 h
# HL-60 [16] = assay: Induction of mitochondrial membrane potential loss in human HL-60 cells measured after 72 hrs by TMRM dye based flow cytometric analysis; format: functional, cell-based; settings: HL-60, 72 h
# HCT-116 [17] = assay: Antiproliferative activity against human HCT-116 cells assessed as cell growth inhibition; format: functional, cell-based
# Bel-7402 = assay: Antiproliferative activity against human Bel-7402 cells; format: functional, cell-based
# MGC-803 = assay: Antiproliferative activity against human MGC-803 cells assessed as cell growth inhibition; format: functional, cell-based
# A549 [18] = assay: Antiproliferative activity against human A549 cells assessed as cell growth inhibition; format: functional, cell-based
# [19] = Antiproliferative activity against human Panel (10 carcinoma cell lines) cells; format: functional, cell-based
# HaCaT = assay: Growth inhibition of human HaCaT cells; format: functional
# HBL = assay: Cytotoxicity against human HBL cells by MTT assay; format: functional, cell-based
# A549 [20] = assay: Cytotoxicity against human A549 cells by MTT assay; format: functional, cell-based
# Erythrocyte = assay: Cytotoxicity against human Erythrocyte by MTT assay; format: functional, cell-based
# MCF7 [21] = assay: Cytotoxicity against human MCF7 cells by MTT assay; format: functional, cell-based
# MDA-MB-231 [22] = assay: Cytotoxicity against human MDA-MB-231 cells by MTT assay; format: functional, cell-based
# MCF7 [23] = assay: Anticancer activity against human MCF7 cells assessed as reduction in cell proliferation; format: functional, cell-based
# HeLa [24] = assay: Anticancer activity against human HeLa cells assessed as reduction in cell proliferation; format: functional, cell-based
# CCRF-CEM = assay: Anticancer activity against human CEM cells; format: functional, cell-based
# [25] = Anticancer activity against human BJ cells assessed as reduction in cell proliferation; format: toxicity, cell-based
compound,measurement,setting,value
COc1ccc(/C=N/N2C(=O)C(C#N)=CC23c2ccccc2NC2C=CC=CC23)cc1 (stereo not given),IC50,NCI-H460,120 nM
Cc1ccccc1/C=C1\CN(/C=C/c2ccccc2)C[C@]2(C1=O)[C@H](c1ccccc1C)[C@@H](Cc1ccccc1)N[C@]21C(=O)Nc2ccccc21,IC50,FaDu,21 µM
COC(=O)c1ccc(C2C(=S)N(c3ccc(C#N)c(C(F)(F)F)c3)C(=O)[C@]23CCOC3)cc1F (stereo not given in full),Ki,Androgen receptor [1],5.6 nM
same,IC50,Androgen receptor [2],33 nM
CCCCN1C(=O)C2(c3cc(F)ccc31)[C@@H](C(=O)OCC)[C@H](C(=O)OCC)NC2(CC(=O)OC)C(=O)OC (stereo not given in full),Activity,HepG2,55.92%
Cc1ccc2[nH]c3c(c2c1)CC1(C3=O)C(c2ccc(F)cc2)C2CSCN2C12C(=O)Nc1ccccc12 (stereo not given),IC50,MCF7 [3],19.4 µM
same,IC50,HeLa [4],79 µM
CCOc1cccc2c1OCC1=CCC3(O[C@H]12)C(=O)c1ccccc1C3=O,IC50,[5],55 µM
same,IC50,HCT-116 [6],27.5 µM
same,IC50,MDA-MB-231 [7],15 µM
same,IC50,MCF7 [8],20 µM
O=C(c1ccc(F)cc1)C1C(c2ccc(Cl)cc2Cl)C2CSCN2C12C(=O)Nc1ccccc12 (stereo not given),IC50,HeLa [9],11.2 µM
same,IC50,[10],21.2 µM
CN1C[C@H](c2ccc(F)cc2)[C@]2(NC(=O)NC2=O)C12C(=O)Nc1ccccc12 (stereo not given in full),IC50,MCF7 [11],18.3 µM
same,IC50,A549 [12],7.5 µM
same,IC50 at 72 h,[13],20.8 µM
same,IC50 at 72 h,[14],14.3 µM
O=C1CS/C(=C\C2c3ccccc3Nc3ccccc32)N1N(c1ccccc1)c1ccccc1,IC50,HL-60 [15],32.2 µM
same,IC50,HL-60 [16],25.9 µM
O=C(C[C@@H](CC1CCCC1)C(=O)N1CC2(CC2)C[C@H]1C(=O)Nc1ccc(F)cn1)NO,IC50,HCT-116 [17],4.88 µM
same,IC50,Bel-7402,4.88 µM
same,IC50,MGC-803,4.88 µM
same,IC50,A549 [18],4.88 µM
same,IC50,[19],2000 nM
N#CC1=CC2(c3ccccc3NC3C=CC=CC32)N(/N=C/c2ccccc2)C1=O (stereo not given),GI50,HaCaT,2000 nM
Cc1ccc2c(c1)C1(CC(=O)C=NO1)C(=O)N2 (stereo not given),IC50,HBL,> 100 µM
same,IC50,A549 [20],13.2 µM
same,IC50,Erythrocyte,> 100 µM
same,IC50,MCF7 [21],> 30 µM
same,IC50,MDA-MB-231 [22],340 nM
CC1CO[C@@]2(O[C@H]3CC4C5CC[C@@H]6C[C@@H](O)CC[C@]6(C)C5CC(=O)[C@]4(C)[C@H]3[C@@H]2C)/C(=C/c2ccccc2)C1 (stereo not given in full),IC50,MCF7 [23],19.9 µM
same,IC50,HeLa [24],35.7 µM
same,IC50,CCRF-CEM,23.2 µM
same,IC50,[25],45.3 µM
CN1C[C@H](c2ccc(Cl)cc2)[C@]2(NC(=O)NC2=O)C12C(=O)Nc1ccc(Br)cc12 (stereo not given in full),IC50,MCF7 [11],24.1 µM
same,IC50,A549 [12],6.6 µM
same,IC50 at 72 h,[13],11.9 µM
same,IC50 at 72 h,[14],9.2 µM
Cc1ccc2[nH]c3c(c2c1)CC1(C3=O)C(c2cccc3ccccc23)C2CSCN2C12C(=O)Nc1ccccc12 (stereo not given),IC50,MCF7 [3],32.6 µM
same,IC50,HeLa [4],24.4 µM
